From ChEMBL document CHEMBL5370626, “Targeting the Subpocket Enables the Discovery of Thiadiazole-Pyridazine Derivatives as Glutaminase C Inhibitors” (ACS Med Chem Lett, 2023)
The source made the active and inactive calls. The calls are words filed in the database; no cut-off is given here.

Legend:
[1] = Mutagenicity in Salmonella typhimurium TA1535 measured at 1.5 to 1000 ug per well for 48 to 72 hrs by mini-Ames test; type: toxicity, Salmonella enterica subsp. enterica serovar Typhimurium; conditions: in vivo; dose lower 1.5 µg, time lower 48 hrs, dose upper 1000 µg, time upper 72 hrs
[2] = AUC(0 to t) in Sprague-Dawley rat plasma at 100 mg/kg, po measured up to 48 hrs by LC-MS/MS analysis; type: ADME, organism-based; parameters: dose 100 mg/kg, time < 48 hrs, route po
[3] = Mutagenicity in Salmonella typhimurium TA100 measured at 1.5 to 1000 ug per well for 48 to 72 hrs in presence of S9 liver fraction by mini-Ames test; type: toxicity, subcellular, Salmonella enterica subsp. enterica serovar Typhimurium; conditions: dose lower 1.5 µg, time lower 48 hrs, dose upper 1000 µg, time upper 72 hrs
[4] = Tmax in Sprague-Dawley rat plasma at 10 mg/kg, iv measured up to 48 hrs by LC-MS/MS analysis; type: ADME, organism-based
[5] = AUC(0 to infinity) in Sprague-Dawley rat plasma at 10 mg/kg, iv measured up to 48 hrs by LC-MS/MS analysis; type: ADME, organism-based; parameters: dose 10 mg/kg, time < 48 hrs, route iv
[6] = target: T1, Glutaminase kidney isoform, mitochondrial (Homo sapiens) (UniProt O94925); experiment: Inhibition of human GAC in A549 cells assessed as reduction in glutamate level at 100 to 1000 nM incubated for 16 hrs by colorimetric assay; type: cell-based; conditions: dose 100-1000 nM
T1 sequence (whole entry): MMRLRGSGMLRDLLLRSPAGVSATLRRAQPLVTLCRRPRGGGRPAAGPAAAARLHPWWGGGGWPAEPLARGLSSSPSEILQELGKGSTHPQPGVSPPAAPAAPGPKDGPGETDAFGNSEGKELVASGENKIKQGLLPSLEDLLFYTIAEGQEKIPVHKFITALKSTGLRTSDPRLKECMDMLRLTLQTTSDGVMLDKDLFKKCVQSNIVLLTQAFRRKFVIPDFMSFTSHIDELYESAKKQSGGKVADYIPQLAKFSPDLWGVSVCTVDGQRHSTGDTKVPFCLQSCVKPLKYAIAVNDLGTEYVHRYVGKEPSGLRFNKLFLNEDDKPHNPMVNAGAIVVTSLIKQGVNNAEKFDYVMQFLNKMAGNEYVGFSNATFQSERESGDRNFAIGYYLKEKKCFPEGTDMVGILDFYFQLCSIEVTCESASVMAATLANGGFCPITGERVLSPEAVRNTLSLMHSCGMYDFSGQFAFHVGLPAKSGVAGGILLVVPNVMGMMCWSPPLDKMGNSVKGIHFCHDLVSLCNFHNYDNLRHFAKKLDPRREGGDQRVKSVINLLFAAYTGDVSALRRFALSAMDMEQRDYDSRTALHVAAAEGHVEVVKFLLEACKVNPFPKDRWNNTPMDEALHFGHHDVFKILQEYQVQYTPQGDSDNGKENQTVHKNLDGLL

[7] = Mutagenicity in Escherichia coli WP2 uvrA measured at 1.5 to 1000 ug per well for 48 to 72 hrs by mini-Ames test; type: toxicity; conditions: in vivo; dose lower 1.5 µg, time lower 48 hrs, dose upper 1000 µg, time upper 72 hrs
[8] = Half life in Sprague-Dawley rat plasma at 100 mg/kg, po measured up to 48 hrs by LC-MS/MS analysis; type: ADME, organism-based
A549 [9] = experiment: Inhibition of colony formation in human A549 cells assessed as reduction of colony number at 1 uM measured after 4 days by crystal violet staining-based colony formation assay relative to control; type: functional; conditions: A549, 96 h, time 4 day
[10] = MRT(0 to infinity) in Sprague-Dawley rat plasma at 10 mg/kg, iv measured up to 48 hrs by LC-MS/MS analysis; type: ADME, organism-based
A549 [11] = experiment: Inhibition of colony formation in human A549 cells assessed as reduction of colony number measured after 4 days by crystal violet staining-based colony formation assay; type: functional, cell-based; conditions: dose 10-1000 nM, time 4.0 day

- AUC(0-t) at 48 h [2]: 2310 ng·h/mL
- Tmax [4]: 1.98 min
- AUC(0-inf) [5]: 4630 ng·h/mL
- inhibition [6]: Active
- half-life [8]: 2.02 h
- MRT inf [10]: 1.59 h
Structure (SMILES): O=C(Cc1cccc(Oc2ccccc2)c1)Nc1nnc(N[C@@H]2CCN(c3cccnn3)C2)s1
- Activity [1]: Non-Toxic
- Activity [3]: Non-Toxic
- Activity [7]: Non-Toxic
- inhibition at 1 µM (A549 [9]): ~100%
- inhibition (A549 [11]): Dose-Dependent Effect
